Key:
[1] = target: T1, human IRAK-4 (Homo sapiens, UniProt Q9NWZ3); experiment: Phosphorylation IC50 determination for human IRAK-4 (ADP-Glo kinase assay); format: biochemical; settings: RIP140 substrate, Km ATP, read-out: IRAK4 IC50
T1 construct: purchased Carna Biosciences 09 145
T1 sequence (Q9NWZ3 1-460): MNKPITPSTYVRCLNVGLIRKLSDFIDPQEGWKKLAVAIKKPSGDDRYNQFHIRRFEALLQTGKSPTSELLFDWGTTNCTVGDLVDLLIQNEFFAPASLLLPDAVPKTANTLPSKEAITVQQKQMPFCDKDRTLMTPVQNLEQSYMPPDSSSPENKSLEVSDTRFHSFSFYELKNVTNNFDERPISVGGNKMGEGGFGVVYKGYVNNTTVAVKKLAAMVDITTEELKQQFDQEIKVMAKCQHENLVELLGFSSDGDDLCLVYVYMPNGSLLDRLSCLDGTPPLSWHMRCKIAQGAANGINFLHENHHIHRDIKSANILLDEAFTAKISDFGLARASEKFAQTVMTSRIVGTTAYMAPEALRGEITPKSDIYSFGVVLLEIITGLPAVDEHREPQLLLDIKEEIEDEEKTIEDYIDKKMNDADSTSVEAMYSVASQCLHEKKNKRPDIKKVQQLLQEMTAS
Method: 3.1. Phosphorylation IC50 Determination for Human IRAK-4
The phosphorylation of the substrate RIP140 (SEQ IDi1) by IRAK4 at Km ATP was detected with the ADP-Glo Kinase Assay (Promega, Cat #V9103), a luminescent kinase assay which measures the ADP formed from a kinase reaction. (Zegzouti et al., 2009) In a second step the kinase reaction is terminated and all the remaining ATP was depleted. In a final step the ADP was converted into ATP and this newly synthesized ATP was measured by using a luciferase/luciferin reaction with a luminescent reader. The luminescent signal positively correlated with kinase activity, in particular kinase inhibition giving a decrease of the luminescent signal.
For the semi-automated assay, the positive control (100% inhibition) was prepared by diluting 10 mM staurosporine stock mixture (20 μL) in water (3.8 mL) and DMSO (180 μL), thus resulting in a […] staurosporine solution at 1% DMSO (final concentration after further dilution in the kinase reaction).
For the automated assay, no pre-dilution of the 10 mM staurosporine stock was made. 10 mM staurosporine was spotted directly in the assay plate using acoustic dispensing and complemented with DMSO to result in a similar final concentration as mentioned above.
For the semi-automated assay, the negative control (0% inhibition) was prepared by mixing water (3.8 mL) and DMSO (200 μL) resulting in a final concentration of 1% DMSO after further dilution in the kinase reaction. For the automated assay no pre-dilution of DMSO was done. 100% DMSO was spotted directly on the assay plate.
The assay buffer solution was prepared at a concentration corresponding to 5 fold the final (most diluted) assay concentration by mixing a solution of 125 mM TRIS pH 7.5+0.05% Triton X-100+2.5 mM EGTA (5.27 mL) with 1M MgCl2 (72 μL), 1M DTT (57.6 μL), and 200 mM MnCl2 (360 μL).
For example, for the semi-automated method, the enzyme-substrate mixture was prepared by mixing water (3999 μL), assay buffer solution (1380 μL), 1 mM RIP140 (138 μL—SEQ ID1), and 200 ng/mL IRAK 4 (3.45 μL Carna Biosciences, 09 145).
For semi-automated method, the ATP mixture was prepared at a concentration corresponding to 2.5 fold the final (most diluted) assay concentration of the semi-automated method and 1.5 fold the final (most diluted) assay concentration of the automated method. For example, for the semi-automated method, the ATP mixture was prepared by mixing water (4126 μL), assay buffer solution (1380 μL), and 10 mM ATP (13.80 μL).
The assay was performed either in a semi-automated or fully automated manner. The assay volume and the incubation time of the ADP detection were different accordingly the method used.
3.1.3.1. Semi-Automated Assay
The compounds were prepared as a serial dilution of 10 point dose responses with 1/5 dilution steps in 100% DMSO starting from 2 mM highest concentration, diluted 1/20 in water. 1 μL was transferred dry to the assay plates.
On each assay plate 32 wells of each control (positive & negative) were added, followed by 2 μL enzyme-substrate mixture.
The reaction was started by adding 2 μL diluted ATP (final concentration Km ATP) on the assay plates. Plates were centrifuged for a few seconds at 1000 rpm followed by an incubation at r.t. for 120 min.
The reactions were stopped and the unconsumed ATP was depleted by adding 5 μL ADP-glo Reagent (Promega, Cat #V9103) to the reaction. The plates were quickly centrifuged at 1000 rpm and incubated at r.t. for 40 min corresponding to full ATP depletion.
The ADP was converted back to ATP and luciferase and luciferin were introduced to detect ATP by adding 10 μL kinase detection reagent (Promega, Cat #V9103) to the reaction. The plates were centrifuged for a few seconds at 1000 rpm and incubated at r.t. for a further 30 min.
Luminescent read out was performed on an Envision luminescent reader (Perkin Elmer). […]

[2] = tested on: Human Hepatocyte; experiment: Metabolic stability in hepatocytes (human); format: in vitro ADME; settings: 1 μM test compound, cryopreserved human hepatocytes
Method: 4.6. Metabolic Stability in Hepatocytes
The aim of this assay is to determine the metabolic stability of the compound in hepatocytes (cryopreserved) of different species. Low hepatocyte stability may result in the formation of unwanted metabolites, high clearance, and therefore is not desirable.
The decrease in parent was assessed by measuring the percentage remaining by LC-MS/MS analysis.
A 10 mM stock solution of test compound in DMSO was first diluted in DMSO to 3 mM, and then in modified Krebs-Henseleit buffer (Sigma, K3753) to 5 μM. This compound dilution was added to a suspension of pooled cryopreserved hepatocytes (BioreclamationIVT) at 37° C. under gentle shaking.
Final reaction conditions were: 1 μM of test compound, 0.03% DMSO, 0.5 million viable hepatocytes/mL, and 75 μL incubation volume.
Testosterone (1 μM) and 7-hydroxycoumarin (1 μM) were used, respectively as phase I and phase II metabolic reaction controls.
After 0, 10, 20, 45, 90, 120 and 180 min of incubation, the reaction was terminated with 225 μL of MeCN:MeOH (2:1) containing 100 ng/mL of diclofenac as analytical internal standard. Samples were mixed, centrifuged and the supernatant analyzed by LC-MS/MS.
The instrument responses (ratios of test compound and internal standard peak areas) were referenced to the zero time point samples (considered as 100%) in order to determine the percentage of compound remaining.
Plots of percentage compound remaining were used to determine the intrinsic clearance in the hepatocyte incubations using the following equations:
Scaled Clint [L/h/kg]=Clint[μL/min/10^6 cells]*#(10^6) cells/g liver*60*( 1/10^6) Scaled Clint unbound [L/h/kg]=Clint [L/h/kg]/Fu,inc where: fu,inc equals hepatocyte binding, derived from microsomal binding (fu,mic) by following equation: […]

IC50 [1] [nM] | Human Hepatocyte stability (Perc. remaining at 90 min) [2] [Perc.] | SMILES
0.1 to 5 | 90.8 | CCOc1cn2nc(CCC(C)(C)O)cc2cc1NC(=O)c1cccn(C)c1=O [Compound 18, N-[6-ethoxy-2-(3-hydroxy-3-methyl-butyl)pyrazolo[1,5-a]pyridin-5-yl]-1-methyl-2-oxo-pyridine-3-carboxamide]
0.1 to 5 | 81.65 | CC(C)(O)CCc1cc2cc(NC(=O)c3cccc(C(F)F)n3)c(C(N)=O)cn2n1 [Compound 20, 5-[[6-(difluoromethyl)pyridine-2-carbonyl]amino]-2-(3-hydroxy-3-methyl-butyl)pyrazolo[1,5-a]pyridine-6-carboxamide]
0.1 to 5 | 92.15 | COc1cn2nc(CCC(C)(C)O)cc2cc1NC(=O)c1cccn(C2CCC2)c1=O [Compound 21, 1-cyclobutyl-N-[2-(3-hydroxy-3-methyl-butyl)-6-methoxy-pyrazolo[1,5-a]pyridin-5-yl]-2-oxo-pyridine-3-carboxamide]
0.1 to 5 | 100.05 | COc1cn2nc(CC(F)C(C)(C)O)cc2cc1NC(=O)c1cccn(C2CC2)c1=O (stereo not drawn) [Compound 22, 1-cyclopropyl-N-[2-(2-fluoro-3-hydroxy-3-methyl-butyl)-6-methoxy-pyrazolo[1,5-a]pyridin-5-yl]-2-oxo-pyridine-3-carboxamide]
0.1 to 5 | 101.45 | [2H]C([2H])([2H])C(O)(CCc1cc2cc(NC(=O)c3cccn(C4CC4)c3=O)c(OC)cn2n1)C([2H])([2H])[2H] [Compound 23, 1-cyclopropyl-N-[6-methoxy-2-[4,4,4-trideuterio-3-hydroxy-3-(trideuteriomethyl)butyl]pyrazolo[1,5-a]pyridin-5-yl]-2-oxo-pyridine-3-carboxamide]
0.1 to 5 | 105 | [2H]C([2H])([2H])Oc1cn2nc(CCC(C)(C)O)cc2cc1NC(=O)c1cccn(C2CC2)c1=O [Compound 24, 1-cyclopropyl-N-[2-(3-hydroxy-3-methylbutyl)-6-(trideuteriomethoxy)pyrazolo[1,5-a]pyridin-5-yl]-2-oxopyridine-3-carboxamide]

From patent publication US20220218679A1, “NOVEL COMPOUNDS AND PHARMACEUTICAL COMPOSITIONS THEREOF FOR THE TREATMENT OF INFLAMMATORY DISORDERS” (Galapagos NV, priority 2019, published 2022)
